Test [1] relates to phosphorylated MPK6/3/4 (P42/44) in soybean leaf discs. The test can be described thus: MAPK phosphorylation immunoblot in soybean leaf discs. In kind it is cell-based, soybean (Glycine max). Particulars: soybean leaf discs at 5 min; anti-phospho P42/44 immunoblot; vs control dH2O. The method, then:
To measure the oxidation burst, leaf discs (Ø 0.5 cm) collected from 2-week-old soybean (cultivar Williams) were floated overnight in 200 μL sterile H2O in a 96-well plate. The H2O was replaced with 200 μL reaction buffer containing luminol/peroxidase ([…] luminol, 10 mg/mL peroxidase) and chitooligosaccharides treatments (50 mg/L). flg22 was used as a positive control. The luminescence was measured using a GLOMAX96 microplate luminometer (Promega, Madison, WI, USA). The experiments for MAPK activation were carried out as described previously ([[…] et al., 2014]). The MAPK activation was determined by immunoblots with anti-phospho-p44/42 MAPK antibody (#4370; Cell Signaling, Boston, MA, USA).
On the technique in general: Immunoblotting shows a protein as a band on a membrane.

The next test has as its target T1, UGT76G1 (Stevia rebaudiana, UniProt Q6VAB4).
T1 construct: made in house
T1 sequence (Q6VAB4 1-458): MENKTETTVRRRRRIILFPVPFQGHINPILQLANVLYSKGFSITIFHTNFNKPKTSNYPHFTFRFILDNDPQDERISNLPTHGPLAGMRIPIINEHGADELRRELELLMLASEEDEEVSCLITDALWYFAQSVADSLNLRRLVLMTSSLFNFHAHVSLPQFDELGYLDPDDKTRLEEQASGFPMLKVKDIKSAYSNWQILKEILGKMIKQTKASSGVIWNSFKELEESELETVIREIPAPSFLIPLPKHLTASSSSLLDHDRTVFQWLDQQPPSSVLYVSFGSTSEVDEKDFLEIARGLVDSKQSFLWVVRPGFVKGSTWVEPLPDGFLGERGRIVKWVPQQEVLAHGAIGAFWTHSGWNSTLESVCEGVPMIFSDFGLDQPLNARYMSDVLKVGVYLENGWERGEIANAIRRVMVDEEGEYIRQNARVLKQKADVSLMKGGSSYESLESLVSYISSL
Put plainly: MST binding to UGT76G1 (negative control protein).

A further test concerns GmNFR5a^ECDF124R. Put plainly: MST binding to GmNFR5a^ECD mutant F124R. More on the design: species or system soybean (Glycine max). Particulars: ligand dp6. From the text:
The ectodomains of GmCERK1, GmNFR5a, and mutants were cloned into the yeast expression vector pPICZαA (Thermo Fisher Scientific, Shanghai, China) through the double digestion and ligation using the restriction endonuclease EcoRI/XbaI (NEB, Suzhou, China) and T4 ligase. Then, the linearized recombinant plasmid pPICZαA‐GmCERK1 and pPICZαA‐GmNFR5a were transformed into P. pastoris X‐33. The positive colonies were selected on YPDS medium (1% w/v yeast extract, 2% w/v peptone, 2% w/v glucose, 2% w/v agar, 100 μg/mL antibiotic Zeocin (Thermo Fisher Scientific)) plates and verified by direct DNA sequencing. Protein expression was carried out initially in BMGY media (100 mM potassium phosphate pH 6.0, 1.34% w/v YNB, 4 × 10^−5% w/v biotin, 1% v/v glycerol) at 28°C with shaking (180 rpm) until the OD600 reached 2.0–6.0. The cell pellet was transferred into BMMY medium (100 mM potassium phosphate pH 6.0, 1.34% w/v YNB, 4 × 10^−5% w/v biotin, 0.5% v/v methanol) and continuously supplied with the addition of 0.5% (v/v) methanol every day for 5 d. […]
GmCERK1^ECD, GmNFR5a^ECD, and all mutants were labeled with a fluorescent dye using the Monolith Protein Labeling Kit RED‐NHS second Generation (MO‐L011). […] The data were analyzed and fitted by plotting ligand concentrations against bound fractions using the MO.Affinity Analysis v3.0.5 software. […]

Another test concerns the target T2, AtCERK1^ECD (Arabidopsis thaliana, UniProt A8R7E6).
T2 construct: ectodomain of AtCERK1 (aa25–224); made in house; host or cells: Pichia pastoris X-33
T2 sequence (A8R7E6 25-224): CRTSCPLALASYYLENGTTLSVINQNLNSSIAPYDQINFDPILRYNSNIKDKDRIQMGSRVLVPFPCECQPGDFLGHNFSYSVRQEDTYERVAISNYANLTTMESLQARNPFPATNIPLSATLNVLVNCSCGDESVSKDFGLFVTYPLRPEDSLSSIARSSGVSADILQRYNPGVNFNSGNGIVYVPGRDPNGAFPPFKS
Put plainly: Microscale thermophoresis (MST) binding to AtCERK1^ECD (positive control). Particulars: ligand dp6, protein purified from Pichia pastoris, read-out: dissociation constant (K D) with AtCERK1^ECD. A general note: MST reads how a fluorescent partner responds to local heating, with and without ligand.

`N[C@H]1[C@H](O[C@H]2[C@H](O)[C@@H](N)[C@H](O[C@H]3[C@H](O)[C@@H](N)[C@H](O[C@H]4[C@H](O)[C@@H](N)[C@H](O[C@H]5[C@H](O)[C@@H](N)[C@H](O[C@H]6[C@H](O)[C@@H](N)C(O)O[C@@H]6CO)O[C@@H]5CO)O[C@@H]4CO)O[C@@H]3CO)O[C@@H]2CO)O[C@H](CO)[C@@H](O)[C@@H]1O` (stereo partly drawn) [CSOS (dp6), chitosan oligosaccharide]: the MAPK phosphorylation result in test [1] is “can induce MAPK activity”. In addition, the “binding to UGT76G1” value at UGT76G1 is recorded as “cannot bind”. In addition, the “interaction with GmNFR5a^ECDF124R” value in the test with GmNFR5a^ECDF124R was “cannot interact”. At AtCERK1^ECD, the Kd was 2730 ± 430 µM.

Turning to `CC(=O)N[C@H]1[C@H](O[C@H]2[C@H](O)[C@@H](NC(C)=O)[C@H](O[C@H]3[C@H](O)[C@@H](NC(C)=O)C(O)O[C@@H]3CO)O[C@@H]2CO)O[C@H](CO)[C@@H](O[C@@H]2O[C@H](CO)[C@@H](O[C@@H]3O[C@H](CO)[C@@H](O[C@@H]4O[C@H](CO)[C@@H](O)[C@H](O)[C@H]4NC(C)=O)[C@H](O)[C@H]3NC(C)=O)[C@H](O)[C@H]2NC(C)=O)[C@@H]1O` (stereo partly drawn) [CTOS (dp6), chitin oligosaccharide], the “binding to UGT76G1” value on UGT76G1 was “cannot bind”. The Kd on AtCERK1^ECD amounted to 660 ± 270 µM.

The record behind these values is PMC12782889, “A GmNRF5a–GmCERK1–GmCAK1 module mediates chitin/chitosan‐triggered immune response in soybean” (Journal of Integrative Plant Biology, 2025).
